Assay results from ChEMBL document CHEMBL1201862, “PubChem BioAssay data set” (2004).
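96-well plates; 48 h exposure; 5 concentrations. Endpoints by linear interpolation between flanking doses. Not reached: highest tested concentration assigned. Here, GI50 denotes the concentration required for 50% inhibition of growth.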 Active and inactive are the calls of the source. Rule as the data show it: active = GI50 up to about 1.1 µM and inactive = higher.

How the values were obtained:
Assay in all cases: growth of human tumour cells (NCI), 48 h
[1] = test system: KM12
[2] = test system: MDA-MB-435
[3] = test system: MCF7
[4] = test system: TK-10
[5] = test system: OVCAR-8
[6] = test system: Hs-578T
[7] = test system: SNB-75
[8] = test system: PC-3
[9] = test system: MDA-N
[10] = test system: RXF 393
[11] = test system: SK-MEL-28
[12] = test system: SNB-19
[13] = test system: M14
[14] = test system: SW-620
[15] = test system: OVCAR-4
[16] = test system: SF-295
[17] = test system: A498
[18] = test system: UACC-257
[19] = test system: T47D
[20] = test system: DU-145

Measured: GI50

O=C1Nc2c(Cl)cc(Cl)cc2/C1=N/N=C/c1ccccc1O
inactive: [1] 26.4 µM | [2] 21.7 µM | [3] 30 µM | [4] 36.8 µM | [5] 21.4 µM | [6] 26.5 µM | [7] 23.5 µM | [8] 19.5 µM | [9] 17.4 µM | [10] 21.2 µM | [11] 20.1 µM | [12] 61.8 µM | [13] 23.1 µM | [14] 22 µM | [15] 27.6 µM | [16] 22.5 µM | [17] 18.7 µM | [18] 23.5 µM

C(=C\c1ccccc1)/Cn1nc(-c2ccccc2)nc1-c1cnccn1
inactive: [1] > 10 µM | [2] > 100 µM | [3] > 100 µM | [4] > 100 µM | [5] > 100 µM | [7] 18.7 µM | [8] > 100 µM | [9] > 100 µM | [10] > 100 µM | [11] > 100 µM | [12] > 100 µM | [19] > 100 µM | [13] > 100 µM | [14] > 100 µM | [15] 68.9 µM | [16] > 100 µM | [18] > 100 µM | [20] > 100 µM

CC(=O)NC(C)(C)C1CCC(C)=C(c2ccccc2)C1 (stereo unspecified)
inactive: [1] > 100 µM | [2] > 100 µM | [3] > 100 µM | [4] > 100 µM | [5] > 100 µM | [7] 53.6 µM | [8] > 100 µM | [9] > 100 µM | [11] > 100 µM | [12] > 100 µM | [19] > 100 µM | [13] > 100 µM | [14] > 100 µM | [15] > 100 µM | [16] > 100 µM | [18] > 100 µM | [20] > 100 µM

CCN(CC)c1nnc(CCCCCCCCc2nnc(N(CC)CC)o2)o1
inactive: [1] > 100 µM | [2] > 100 µM | [3] > 100 µM | [4] > 100 µM | [5] > 100 µM | [7] > 100 µM | [8] > 100 µM | [9] > 100 µM | [10] > 100 µM | [11] > 100 µM | [12] > 100 µM | [13] > 100 µM | [14] > 100 µM | [15] > 100 µM | [16] > 100 µM | [17] > 100 µM | [18] > 100 µM | [20] > 100 µM

CNC(=O)NCCCCC(NC(=O)OCc1ccccc1)C(=O)OCc1ccccc1 (stereo unspecified)
inactive: [1] 29.9 µM | [4] 21.9 µM | [5] 29.4 µM | [7] 20.2 µM | [10] 16.4 µM | [11] 21.1 µM | [12] > 100 µM | [13] 16.5 µM | [14] > 100 µM | [15] 22.3 µM | [16] 20.6 µM | [17] > 100 µM | [18] 18.6 µM

CC/C(=N/O)C(C)C(=O)CCC(=O)Nc1ccc(Cl)cc1 (stereo unspecified)
inactive: [1] > 100 µM | [4] > 100 µM | [5] > 100 µM | [7] 49.9 µM | [10] > 100 µM | [11] > 100 µM | [12] > 100 µM | [13] > 100 µM | [14] > 100 µM | [15] > 100 µM | [16] > 100 µM | [17] > 100 µM | [18] > 100 µM

O=C(C#Cc1ccccc1)NC/C=C/c1ccccc1
inactive: [1] 46.7 µM | [4] 47.3 µM | [5] 35.2 µM | [7] 17.8 µM | [10] 14.8 µM | [11] 76.4 µM | [12] 26.7 µM | [13] 55.3 µM | [14] 36.9 µM | [15] 48.1 µM | [16] 38.6 µM | [17] 52 µM | [18] > 100 µM

CCc1ccccc1NC(=O)C(=O)C(C#N)c1ccccc1Cl (stereo unspecified)
inactive: [1] > 100 µM | [4] 2.55 µM | [5] > 100 µM | [7] > 100 µM | [10] > 100 µM | [11] > 100 µM | [12] > 100 µM | [13] > 100 µM | [14] > 100 µM | [15] > 100 µM | [16] > 100 µM | [17] 35.5 µM | [18] > 100 µM

COc1cccc2c1[C@]1(O)C(O)CCCC21 (stereo partly specified)
inactive: [1] > 100 µM | [4] > 100 µM | [5] > 100 µM | [7] > 100 µM | [10] > 100 µM | [11] > 100 µM | [12] > 100 µM | [13] > 100 µM | [14] > 100 µM | [15] > 100 µM | [16] > 100 µM | [17] > 100 µM | [18] > 100 µM
